The values below come from patent US7750053B2, “Compositions and methods for alleviating hypertension or preventing a rise in blood pressure” (KAO Corporation, priority 2000, dated 2010).

Test [1] has as its system spontaneously hypertensive rats (SHR). Nature of the test: Evaluation of blood pressure reduction (single administration, systolic blood pressure of the caudal artery). It is filed as in vivo, rat. The conditions noted are these: male 15 week-old SHR, fasted overnight, solution in physiological saline (0.2% actives in total), 1 mL/kg, mean ± SD, n=5; for Systolic blood pressure (changing ratio %) after 10 minutes: 10 minutes after administration vs prior to administration; for Systolic blood pressure (changing ratio %) After 1 hour: 1 hour after administration vs prior to administration. As for the experimental part:
Prior to initiation of the experimental studies in order to accustom the test animals to sphygmomanometric operation the blood pressure of each test animal—male, 15 week-old, spontaneously hypertensive rats (“SHR”)—was preliminarily measured for 7 successive days using a commercially available noninvasive sphygmomanometer for rats (manufactured by Softlon Co., Ltd.).
Rats were all bred in a breeding room in a rat region under uniform conditions at a room temperature at 25±1° C., humidity of 55±10% RH and illumination for 12 hours (from 7:00 am to 7:00 pm).
In the control group (Control Plot, see Table 1), physiological saline was employed. As a material to be administered, a solution obtained by dissolving 0.2 wt. % (which will hereinafter be simply described as %) of caffeic acid in physiological saline, a solution obtained by dissolving 0.2% of a chlorogenic acid in physiological saline, a solution obtained by dissolving 0.2% of ferulic acid in physiological saline and a solution obtained by dissolving 0.1% of caffeic acid and 0.1% of ferulic acid in physiological saline were used in Test plot 1, Test plot 2, Test plot 3 and Test plot 4, respectively. In Test plot 5, a solution obtained by dissolving 0.1% of a chlorogenic acid and 0.1% of ferulic acid in physiological saline was used, while in Test plot 6, a solution obtained by dissolving 0.05% of caffeic acid, 0.05% of a chlorogenic acid and 0.1% of ferulic acid in physiological saline was used. Each of them was administered from the common carotid artery. The dosage was 1 mL/kg.
SHRs were fasted overnight and employed for each test group, each group consisted of 5 rats. Systolic blood pressures of the caudal artery prior to intravenous administration, and 10 minutes and 1 hour each after administration were measured.
In Table 1, the changing ratio (%) in systolic blood pressure for each experimental group is reported by its mean value (%) and by its standard deviation. The Student's t-test was used to indicate the statistical significance of the experimental data. A significance level of 5% or less is indicated as “*” in Table 1, and significance level of 0.1% or less as “***”.
A lowering ratio of the systolic blood pressure of each of 10 minutes and 1 hour after administration to the systolic blood pressure prior to administration is shown in Table 1.

The target of test [2] is angiotensin I converting enzyme (ACE) (Homo sapiens, UniProt P12821). The conditions noted are these: polyphenols of unripe Rosaceae fruit juice; JP Kokai Hei 8-259453; cited from earlier work.
Sequence of angiotensin I converting enzyme (ACE) (P12821 30-1306, species assumed): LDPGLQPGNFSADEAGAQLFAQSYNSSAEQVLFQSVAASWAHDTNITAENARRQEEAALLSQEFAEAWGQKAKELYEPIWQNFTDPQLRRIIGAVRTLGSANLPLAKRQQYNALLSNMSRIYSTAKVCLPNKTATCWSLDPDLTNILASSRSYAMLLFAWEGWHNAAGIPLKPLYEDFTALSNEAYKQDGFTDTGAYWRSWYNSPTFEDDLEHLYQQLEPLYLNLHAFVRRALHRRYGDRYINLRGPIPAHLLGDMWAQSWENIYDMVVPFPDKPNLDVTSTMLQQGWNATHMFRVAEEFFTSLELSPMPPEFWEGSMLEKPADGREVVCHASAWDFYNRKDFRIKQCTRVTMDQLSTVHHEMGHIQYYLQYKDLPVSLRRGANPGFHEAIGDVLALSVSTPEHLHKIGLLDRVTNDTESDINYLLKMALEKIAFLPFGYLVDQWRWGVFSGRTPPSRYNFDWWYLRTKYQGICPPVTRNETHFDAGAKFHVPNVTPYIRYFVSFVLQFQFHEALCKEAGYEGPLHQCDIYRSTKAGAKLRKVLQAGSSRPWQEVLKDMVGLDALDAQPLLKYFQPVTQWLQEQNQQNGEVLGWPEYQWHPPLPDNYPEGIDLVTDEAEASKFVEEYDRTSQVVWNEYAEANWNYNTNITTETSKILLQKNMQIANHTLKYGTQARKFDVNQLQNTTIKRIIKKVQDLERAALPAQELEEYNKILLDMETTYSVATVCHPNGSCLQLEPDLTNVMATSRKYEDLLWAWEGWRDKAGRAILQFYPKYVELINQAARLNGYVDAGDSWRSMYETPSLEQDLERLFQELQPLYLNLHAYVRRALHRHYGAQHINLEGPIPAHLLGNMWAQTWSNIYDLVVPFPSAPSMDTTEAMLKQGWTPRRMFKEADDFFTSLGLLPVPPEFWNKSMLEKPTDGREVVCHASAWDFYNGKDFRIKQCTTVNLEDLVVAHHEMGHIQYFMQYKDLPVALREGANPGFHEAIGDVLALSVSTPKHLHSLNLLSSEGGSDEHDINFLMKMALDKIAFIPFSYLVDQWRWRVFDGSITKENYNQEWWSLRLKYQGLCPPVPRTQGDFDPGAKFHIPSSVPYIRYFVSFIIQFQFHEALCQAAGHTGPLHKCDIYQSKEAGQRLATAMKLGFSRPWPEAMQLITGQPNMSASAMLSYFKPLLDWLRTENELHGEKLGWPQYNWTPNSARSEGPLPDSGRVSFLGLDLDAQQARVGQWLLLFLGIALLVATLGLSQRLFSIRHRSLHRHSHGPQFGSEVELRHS
Another test has as its system calcium. The conditions noted are these: from spike of Schizonepeta tenuifolia Briq.; JP Kokai Hei 4-243822; cited from earlier work.

Marks after values point to notes of the source that are not given here.

`O=C(O)/C=C/c1ccc(O)c(O)c1` [Caffeic acid (CA), caffeic acid]: in test [1], the “Systolic blood pressure (changing ratio %) after 10 minutes” value was −4.1 ± 2.1% and the “Systolic blood pressure (changing ratio %) After 1 hour” value is on record as −10.2 ± 0.5*** %. Also, the “angiotensin I converting enzyme (ACE) inhibitory action (in words)” value in test [2] was “inhibitory action”. For the same compound, the “calcium antagonism (in words)” value with calcium is “exerts calcium antagonism”.
For the compound `O=C(/C=C/c1ccc(O)c(O)c1)O[C@@H]1C[C@](O)(C(=O)O)C[C@@H](O)[C@H]1O` [Chlorogenic acid (CHA), chlorogenic acid], in test [1], the “Systolic blood pressure (changing ratio %) after 10 minutes” value was −3.2 ± 2.6% and the “Systolic blood pressure (changing ratio %) After 1 hour” value is −7.2 ± 1.7* %. The “angiotensin I converting enzyme (ACE) inhibitory action (in words)” value in test [2] is reported as “inhibitory action”.
For `COc1cc(/C=C/C(=O)O)ccc1O` [Ferulic acid (FA), ferulic acid], in test [1], the “Systolic blood pressure (changing ratio %) after 10 minutes” value is listed as −7.8 ± 0.8*** % and the “Systolic blood pressure (changing ratio %) After 1 hour” value stood at 0.7 ± 2.6%.
